# Laboratory results taken from patent US20080009418A1, “Selective Inhibitors” (Alchemia LTD., priority 2004, published 2008).
# Tests used:
# Human δ-opioid (DOP) = biological target: T1, Human δ-opioid (DOP) (Homo sapiens, UniProt P41143); experiment: Radioligand binding, human δ-opioid (DOP) membranes, FlashPlate, [3H]-Bremazocine; details: compound at 10 μM, [3H]-Bremazocine
# T1 construct: purchased Perkin Elmer Biosignal
# Method in brief: (§1)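 Cloned human receptor membranes were coated onto FlashPlate wells and incubated with radioligand and compound (added from a 0.5 mM DMSO daughter plate) for 1 hour at room temperature in the dark. Scintillation counting gave percent inhibition, with DMSO defining total and reference ligand defining non-specific binding.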
# Human κ-Opioid (KOP) = biological target: T2, Human κ-Opioid (KOP) (Homo sapiens, UniProt P41145); experiment: Radioligand binding, human κ-opioid (KOP) membranes, filtration, [3H]-Diprenorphine; details: compound at 10 μM, [3H]-Diprenorphine
# T2 construct: purchased Perkin Elmer Biosignal
# T2 sequence (P41145 whole entry): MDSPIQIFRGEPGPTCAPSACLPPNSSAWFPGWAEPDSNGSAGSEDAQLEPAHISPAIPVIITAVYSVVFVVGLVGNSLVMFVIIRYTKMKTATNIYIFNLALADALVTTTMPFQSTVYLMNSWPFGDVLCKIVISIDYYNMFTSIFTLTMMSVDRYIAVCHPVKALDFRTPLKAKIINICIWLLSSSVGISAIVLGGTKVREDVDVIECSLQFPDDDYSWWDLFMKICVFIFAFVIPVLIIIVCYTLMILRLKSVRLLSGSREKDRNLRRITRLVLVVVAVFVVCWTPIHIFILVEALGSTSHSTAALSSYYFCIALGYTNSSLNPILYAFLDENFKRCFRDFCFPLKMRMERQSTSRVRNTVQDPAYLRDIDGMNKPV
# Method in brief: (§2)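 Percent inhibition of radioligand binding measured on recombinant human membranes: NK1 with [125I]-Substance P, KOP with [3H]-Diprenorphine. Incubation 1 h at room temperature, then harvest onto 0.3% PEI-soaked filters, cold Tris-HCl pH 7.4 washes and scintillation counting; non-specific binding from reference ligand wells.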
# Human Melanocortin (MC3) = biological target: T3, Human Melanocortin (MC3) (Homo sapiens, UniProt P41968); experiment: Radioligand binding, human melanocortin MC3 membranes, FlashPlate, [125I]-NDP-αMSH; details: compound at 10 μM, [125I]-NDP-αMSH
# T3 construct: purchased Perkin Elmer Biosignal
# T3 sequence (P41968 whole entry): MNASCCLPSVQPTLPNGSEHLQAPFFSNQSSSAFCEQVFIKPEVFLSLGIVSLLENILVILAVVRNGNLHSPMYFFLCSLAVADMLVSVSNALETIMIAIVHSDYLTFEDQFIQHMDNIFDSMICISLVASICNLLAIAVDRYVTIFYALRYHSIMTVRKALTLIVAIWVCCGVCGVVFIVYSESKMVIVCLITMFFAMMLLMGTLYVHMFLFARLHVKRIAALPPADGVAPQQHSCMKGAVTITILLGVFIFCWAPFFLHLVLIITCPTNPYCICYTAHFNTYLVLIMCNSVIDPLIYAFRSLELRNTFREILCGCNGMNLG
# Method in brief: as §1
# Human Melanocortin (MC4) = biological target: T4, Human Melanocortin (MC4) (Homo sapiens, UniProt P32245); experiment: Radioligand binding, human melanocortin MC4 membranes, FlashPlate, [125I]-NDP-αMSH; details: compound at 10 μM, [125I]-NDP-αMSH
# T4 construct: purchased Perkin Elmer Biosignal
# T4 sequence (P32245 whole entry): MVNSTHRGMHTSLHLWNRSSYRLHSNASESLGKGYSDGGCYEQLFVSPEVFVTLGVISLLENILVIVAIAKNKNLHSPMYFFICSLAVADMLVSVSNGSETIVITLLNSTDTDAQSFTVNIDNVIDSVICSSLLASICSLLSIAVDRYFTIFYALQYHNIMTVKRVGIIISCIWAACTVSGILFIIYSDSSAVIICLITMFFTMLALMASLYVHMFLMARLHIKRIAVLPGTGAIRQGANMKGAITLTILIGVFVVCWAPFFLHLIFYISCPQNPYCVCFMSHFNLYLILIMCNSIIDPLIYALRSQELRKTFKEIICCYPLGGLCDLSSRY
# Method in brief: as §1
# Human melanocortin (MC5) = biological target: T5, Human melanocortin (MC5) (Homo sapiens, UniProt P33032); experiment: Radioligand binding, human melanocortin MC5 membranes, FlashPlate, [125I]-NDP-αMSH; details: compound at 10 μM, [125I]-NDP-αMSH
# T5 construct: purchased Perkin Elmer Biosignal
# T5 sequence (P33032 whole entry): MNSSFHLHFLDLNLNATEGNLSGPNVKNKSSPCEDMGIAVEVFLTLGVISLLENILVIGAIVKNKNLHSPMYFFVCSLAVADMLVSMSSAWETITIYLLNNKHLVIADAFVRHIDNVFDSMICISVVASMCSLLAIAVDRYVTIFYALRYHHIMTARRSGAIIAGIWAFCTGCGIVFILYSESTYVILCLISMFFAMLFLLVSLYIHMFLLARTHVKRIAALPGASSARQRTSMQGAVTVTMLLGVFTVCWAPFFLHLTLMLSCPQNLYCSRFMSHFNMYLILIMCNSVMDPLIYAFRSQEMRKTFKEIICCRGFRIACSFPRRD
# Method in brief: as §1
# [1] = biological target: T6, Human melanin-concentrating hormone (MCH1) (Homo sapiens, UniProt Q99705); experiment: Radioligand binding, human melanin-concentrating hormone MCH1 membranes, FlashPlate, [125I]-S36057; details: compound at 10 μM; for A6: inhibition of radioligand binding, human melanin-concentrating hormone (MCH1): [125I]-S36057
# T6 construct: purchased Perkin Elmer Biosignal
# T6 sequence (Q99705 whole entry): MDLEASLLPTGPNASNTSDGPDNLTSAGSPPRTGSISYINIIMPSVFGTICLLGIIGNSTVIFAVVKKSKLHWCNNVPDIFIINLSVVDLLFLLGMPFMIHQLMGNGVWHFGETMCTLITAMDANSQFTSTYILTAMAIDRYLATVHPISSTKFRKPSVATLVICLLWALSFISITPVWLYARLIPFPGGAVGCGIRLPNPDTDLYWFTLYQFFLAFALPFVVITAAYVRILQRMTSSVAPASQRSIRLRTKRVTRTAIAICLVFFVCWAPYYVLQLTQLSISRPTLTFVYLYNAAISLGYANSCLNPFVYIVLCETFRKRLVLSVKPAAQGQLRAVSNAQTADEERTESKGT
# Method in brief: as §1
# Human μ-opioid (MOP) = biological target: T7, Human μ-opioid (MOP) (Homo sapiens, UniProt P35372); experiment: Radioligand binding, human μ-opioid (MOP) membranes, FlashPlate, [3H]-Naloxone; details: compound at 10 μM, [3H]-Naloxone
# T7 construct: purchased Perkin Elmer Biosignal
# T7 sequence (P35372 whole entry): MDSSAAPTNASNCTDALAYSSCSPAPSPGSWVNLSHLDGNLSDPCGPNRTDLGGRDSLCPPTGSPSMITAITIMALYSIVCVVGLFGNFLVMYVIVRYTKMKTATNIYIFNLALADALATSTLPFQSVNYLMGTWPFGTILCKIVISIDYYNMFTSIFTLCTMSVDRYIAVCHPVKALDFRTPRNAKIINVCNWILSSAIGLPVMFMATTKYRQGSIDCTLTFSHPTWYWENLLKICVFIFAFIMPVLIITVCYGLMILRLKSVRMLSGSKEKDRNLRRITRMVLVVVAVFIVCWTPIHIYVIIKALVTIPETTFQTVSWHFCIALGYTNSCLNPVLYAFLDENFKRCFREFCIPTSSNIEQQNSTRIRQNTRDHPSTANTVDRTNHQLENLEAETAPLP
# Method in brief: as §1
# Human neurokinin (NK1) = biological target: T8, Human neurokinin (NK1) (Homo sapiens, UniProt P25103); experiment: Radioligand binding, human neurokinin NK1 membranes, filtration, [125I]-Substance P; details: compound at 10 μM, [125I]-Substance P
# T8 construct: purchased Perkin Elmer Biosignal
# T8 sequence (P25103 whole entry): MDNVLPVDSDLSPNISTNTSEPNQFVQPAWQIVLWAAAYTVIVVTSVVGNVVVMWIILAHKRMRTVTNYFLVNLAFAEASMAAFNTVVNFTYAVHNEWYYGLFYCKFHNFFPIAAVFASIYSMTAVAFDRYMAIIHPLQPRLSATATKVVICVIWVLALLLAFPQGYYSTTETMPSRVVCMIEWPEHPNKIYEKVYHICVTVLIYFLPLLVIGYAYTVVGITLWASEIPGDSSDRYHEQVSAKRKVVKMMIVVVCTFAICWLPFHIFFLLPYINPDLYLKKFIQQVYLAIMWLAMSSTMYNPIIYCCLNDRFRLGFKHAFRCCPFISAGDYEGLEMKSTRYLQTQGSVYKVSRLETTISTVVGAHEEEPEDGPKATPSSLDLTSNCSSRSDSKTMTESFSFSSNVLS
# Method in brief: as §2
# [2] = biological target: T9, Human neuropeptide Y (NPY-Y1) (Homo sapiens, UniProt P25929); experiment: Radioligand binding, human neuropeptide Y NPY-Y1 membranes, FlashPlate, [125I]-PYY; details: compound at 10 μM, [125I]-PYY
# T9 construct: purchased Perkin Elmer Biosignal
# T9 sequence (P25929 1-384): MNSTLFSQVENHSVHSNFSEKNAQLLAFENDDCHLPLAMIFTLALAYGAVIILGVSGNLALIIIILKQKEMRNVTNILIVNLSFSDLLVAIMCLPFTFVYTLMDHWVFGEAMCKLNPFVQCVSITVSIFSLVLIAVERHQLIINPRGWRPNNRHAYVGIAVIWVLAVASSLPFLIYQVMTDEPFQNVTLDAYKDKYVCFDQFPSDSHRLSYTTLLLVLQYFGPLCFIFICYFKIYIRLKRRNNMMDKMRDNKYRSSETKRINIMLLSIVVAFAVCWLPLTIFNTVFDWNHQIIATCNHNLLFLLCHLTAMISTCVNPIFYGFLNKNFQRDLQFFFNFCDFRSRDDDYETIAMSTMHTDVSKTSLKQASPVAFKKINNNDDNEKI
# Method in brief: as §1
# Human opioid (ORL1) = biological target: T10, Human opioid (ORL1) (Homo sapiens, UniProt P41146); experiment: Radioligand binding, human opioid ORL1 membranes, FlashPlate, [125I]-Nociceptin; details: compound at 10 μM, [125I]-Nociceptin
# T10 construct: purchased Perkin Elmer Biosignal
# T10 sequence (P41146 whole entry): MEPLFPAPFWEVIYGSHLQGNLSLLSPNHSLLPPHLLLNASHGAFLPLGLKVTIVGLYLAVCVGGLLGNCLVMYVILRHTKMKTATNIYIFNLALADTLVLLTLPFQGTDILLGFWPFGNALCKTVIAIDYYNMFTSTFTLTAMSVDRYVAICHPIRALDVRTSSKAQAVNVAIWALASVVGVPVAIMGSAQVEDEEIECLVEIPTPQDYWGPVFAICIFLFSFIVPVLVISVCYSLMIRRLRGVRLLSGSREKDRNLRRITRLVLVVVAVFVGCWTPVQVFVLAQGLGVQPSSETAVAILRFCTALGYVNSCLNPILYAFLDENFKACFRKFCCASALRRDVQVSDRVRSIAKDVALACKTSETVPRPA
# Method in brief: as §1
# Mouse urotensin (mUR2) = biological target: T11, Mouse urotensin (mUR2) (Mus musculus, UniProt Q8VIH9); experiment: Radioligand binding, mouse urotensin mUR2 membranes, FlashPlate, [125I]-Urotensin II; details: compound at 10 μM, [125I]-Urotensin II
# T11 construct: purchased Perkin Elmer Biosignal
# T11 sequence (Q8VIH9 1-385): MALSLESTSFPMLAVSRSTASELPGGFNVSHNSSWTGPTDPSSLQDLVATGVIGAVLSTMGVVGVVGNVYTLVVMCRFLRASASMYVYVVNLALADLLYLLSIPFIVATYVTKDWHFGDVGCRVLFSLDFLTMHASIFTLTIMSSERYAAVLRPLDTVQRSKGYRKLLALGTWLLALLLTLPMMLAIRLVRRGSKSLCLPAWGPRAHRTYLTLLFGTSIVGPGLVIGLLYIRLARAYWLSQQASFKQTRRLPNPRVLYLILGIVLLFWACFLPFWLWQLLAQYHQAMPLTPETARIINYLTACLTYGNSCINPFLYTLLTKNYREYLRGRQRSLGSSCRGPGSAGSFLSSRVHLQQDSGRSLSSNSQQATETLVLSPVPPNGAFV
# Method in brief: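 Cloned mouse urotensin (mUR2) receptor membranes from Perkin Elmer Biosignal were immobilized in FlashPlate microplates using a proprietary coating. Each well got 19.5 μl buffer, then 0.5 μl of DMSO, reference ligand, or compound. Adding 5 μl of [125I]-Urotensin II, diluted to 5× final concentration in binding buffer, started binding. Plates were sealed with TopSeal-A and incubated 1 hour at room temperature in the dark. Wells were counted for 30 seconds each on a TopCount after a 60-second delay, and percentage inhibition was calculated.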
# T1 sequence (P41143 whole entry): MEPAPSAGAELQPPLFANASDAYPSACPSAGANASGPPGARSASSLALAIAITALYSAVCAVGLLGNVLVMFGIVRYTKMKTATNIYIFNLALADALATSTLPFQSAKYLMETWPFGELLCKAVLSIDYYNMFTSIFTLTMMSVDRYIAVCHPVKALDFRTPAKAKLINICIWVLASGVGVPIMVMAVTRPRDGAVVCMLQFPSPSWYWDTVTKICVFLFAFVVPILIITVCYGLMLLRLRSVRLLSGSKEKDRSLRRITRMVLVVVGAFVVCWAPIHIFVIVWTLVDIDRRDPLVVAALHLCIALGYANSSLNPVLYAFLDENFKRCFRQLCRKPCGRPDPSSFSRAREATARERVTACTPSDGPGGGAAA
smiles,measurement,setting,value
N=C(N)NCC(=O)NC1C(OCc2ccc(Cl)cc2)OC(COCc2ccc3ccccc3c2)C(O)C1OCc1ccc(-c2ccccc2)cc1 (stereo not shown) [compound 423],A1: inhibition of radioligand binding,Human δ-opioid (DOP); human DOP membranes,− (“−” indicates less than 50% inhibition at 10 μM)
same,A2: inhibition of radioligand binding,Human κ-Opioid (KOP); human KOP membranes,− (“−” indicates less than 50% inhibition at 10 μM)
same,A3: inhibition of radioligand binding,Human Melanocortin (MC3); human MC3 membranes,+ (“+” indicates greater than 50% inhibition at 10 μM)
same,A4: inhibition of radioligand binding,Human Melanocortin (MC4); human MC4 membranes,+ (“+” indicates greater than 50% inhibition at 10 μM)
same,A5: inhibition of radioligand binding,Human melanocortin (MC5); human MC5 membranes,+ (“+” indicates greater than 50% inhibition at 10 μM)
same,A6: inhibition of radioligand binding,"[1]; [125I]-S36057, human MCH1 membranes",− (“−” indicates less than 50% inhibition at 10 μM)
same,A7: inhibition of radioligand binding,Human μ-opioid (MOP); human MOP membranes,− (“−” indicates less than 50% inhibition at 10 μM)
same,A8: inhibition of radioligand binding,Human neurokinin (NK1); human NK1 membranes,+ (“+” indicates greater than 50% inhibition at 10 μM)
same,A9: inhibition of radioligand binding,[2]; human NPY-Y1 membranes,− (“−” indicates less than 50% inhibition at 10 μM)
same,A10: inhibition of radioligand binding,Human opioid (ORL1); human ORL1 membranes,+ (“+” indicates greater than 50% inhibition at 10 μM)
same,A11: inhibition of radioligand binding,Mouse urotensin (mUR2); mouse mUR2 membranes,− (“−” indicates less than 50% inhibition at 10 μM)
COCC1OC(OCc2ccc3ccccc3c2)C(NC(=O)CCNC(=N)N)C(OCc2ccc3ccccc3c2)C1O (stereo not shown) [compound 547],"A1: inhibition of radioligand binding, human δ-opioid (DOP)",Human δ-opioid (DOP),− (“−” indicates less than 50% inhibition at 10 μM)
same,"A2: inhibition of radioligand binding, human κ-opioid (KOP)",Human κ-Opioid (KOP),− (“−” indicates less than 50% inhibition at 10 μM)
same,"A3: inhibition of radioligand binding, human melanocortin (MC3)",Human Melanocortin (MC3),− (“−” indicates less than 50% inhibition at 10 μM)
same,"A4: inhibition of radioligand binding, human melanocortin (MC4)",Human Melanocortin (MC4),− (“−” indicates less than 50% inhibition at 10 μM)
same,"A5: inhibition of radioligand binding, human melanocortin (MC5)",Human melanocortin (MC5),− (“−” indicates less than 50% inhibition at 10 μM)
same,"A6: inhibition of radioligand binding, human melanin-concentrating hormone (MCH1)",[1],+ (“+” indicates greater than 50% inhibition at 10 μM)
same,"A7: inhibition of radioligand binding, human μ-opioid (MOP)",Human μ-opioid (MOP),− (“−” indicates less than 50% inhibition at 10 μM)
same,"A8: inhibition of radioligand binding, human neurokinin (NK1)",Human neurokinin (NK1),+ (“+” indicates greater than 50% inhibition at 10 μM)
same,"A9: inhibition of radioligand binding, human neuropeptide Y (NPY-Y1)",[2],− (“−” indicates less than 50% inhibition at 10 μM)
same,"A10: inhibition of radioligand binding, human opioid (ORL1)",Human opioid (ORL1),− (“−” indicates less than 50% inhibition at 10 μM)
same,"A11: inhibition of radioligand binding, mouse urotensin (mUR2)",Mouse urotensin (mUR2),− (“−” indicates less than 50% inhibition at 10 μM)
COCC1OC(OCc2ccc3ccccc3c2)C(NC(=O)CNC(=N)N)C(OCc2ccccc2)C1O (stereo not shown) [compound 230],A1: inhibition of radioligand binding,Human δ-opioid (DOP); FlashPlate,− (“−” indicates less than 50% inhibition at 10 μM)
same,A2: inhibition of radioligand binding,Human κ-Opioid (KOP); filtration,− (“−” indicates less than 50% inhibition at 10 μM)
same,A3: inhibition of radioligand binding,Human Melanocortin (MC3); FlashPlate,− (“−” indicates less than 50% inhibition at 10 μM)
same,A4: inhibition of radioligand binding,Human Melanocortin (MC4); FlashPlate,− (“−” indicates less than 50% inhibition at 10 μM)
same,A5: inhibition of radioligand binding,Human melanocortin (MC5); FlashPlate,+ (“+” indicates greater than 50% inhibition at 10 μM)
same,A6: inhibition of radioligand binding,"[1]; [125I]-S36057, FlashPlate",− (“−” indicates less than 50% inhibition at 10 μM)
same,A7: inhibition of radioligand binding,Human μ-opioid (MOP); FlashPlate,− (“−” indicates less than 50% inhibition at 10 μM)
same,A8: inhibition of radioligand binding,Human neurokinin (NK1); filtration,+ (“+” indicates greater than 50% inhibition at 10 μM)
same,A9: inhibition of radioligand binding,[2]; FlashPlate,− (“−” indicates less than 50% inhibition at 10 μM)
same,A10: inhibition of radioligand binding,Human opioid (ORL1); FlashPlate,− (“−” indicates less than 50% inhibition at 10 μM)
same,A11: inhibition of radioligand binding,Mouse urotensin (mUR2); FlashPlate,− (“−” indicates less than 50% inhibition at 10 μM)
NCCC(=O)NC1C(OCc2ccccc2)OC(COCc2ccc(Cl)cc2)C(O)C1OCc1ccccc1 (stereo not shown) [compound 371],"A1: inhibition of radioligand binding, human δ-opioid (DOP)",Human δ-opioid (DOP),− (“−” indicates less than 50% inhibition at 10 μM)
same,"A2: inhibition of radioligand binding, human κ-opioid (KOP)",Human κ-Opioid (KOP),− (“−” indicates less than 50% inhibition at 10 μM)
same,"A3: inhibition of radioligand binding, human melanocortin (MC3)",Human Melanocortin (MC3),− (“−” indicates less than 50% inhibition at 10 μM)
same,"A4: inhibition of radioligand binding, human melanocortin (MC4)",Human Melanocortin (MC4),− (“−” indicates less than 50% inhibition at 10 μM)
same,"A5: inhibition of radioligand binding, human melanocortin (MC5)",Human melanocortin (MC5),− (“−” indicates less than 50% inhibition at 10 μM)
same,"A6: inhibition of radioligand binding, human melanin-concentrating hormone (MCH1)",[1],− (“−” indicates less than 50% inhibition at 10 μM)
same,"A7: inhibition of radioligand binding, human μ-opioid (MOP)",Human μ-opioid (MOP),− (“−” indicates less than 50% inhibition at 10 μM)
same,"A8: inhibition of radioligand binding, human neurokinin (NK1)",Human neurokinin (NK1),+ (“+” indicates greater than 50% inhibition at 10 μM)
same,"A9: inhibition of radioligand binding, human neuropeptide Y (NPY-Y1)",[2],− (“−” indicates less than 50% inhibition at 10 μM)
same,"A10: inhibition of radioligand binding, human opioid (ORL1)",Human opioid (ORL1),− (“−” indicates less than 50% inhibition at 10 μM)
same,"A11: inhibition of radioligand binding, mouse urotensin (mUR2)",Mouse urotensin (mUR2),− (“−” indicates less than 50% inhibition at 10 μM)
"NCCCC(=O)NC1C(OCc2ccc3ccccc3c2)OC(COCc2ccc3ccccc3c2)C(O)C1OCc1ccc2ccccc2c1 (single isomer, unassigned) [compound 460]",A1: inhibition of radioligand binding,Human δ-opioid (DOP); human DOP membranes,− (“−” indicates less than 50% inhibition at 10 μM)
same,A2: inhibition of radioligand binding,Human κ-Opioid (KOP); human KOP membranes,− (“−” indicates less than 50% inhibition at 10 μM)
same,A3: inhibition of radioligand binding,"Human Melanocortin (MC3); human MC3 membranes, 10 µM",− (“−” indicates less than 50% inhibition at 10 μM)
same,A4: inhibition of radioligand binding,"Human Melanocortin (MC4); human MC4 membranes, 10 µM",− (“−” indicates less than 50% inhibition at 10 μM)
same,A5: inhibition of radioligand binding,Human melanocortin (MC5); human MC5 membranes,+ (“+” indicates greater than 50% inhibition at 10 μM)
same,A6: inhibition of radioligand binding,"[1]; [125I]-S36057, human MCH1 membranes, 10 µM",− (“−” indicates less than 50% inhibition at 10 μM)
same,A7: inhibition of radioligand binding,"Human μ-opioid (MOP); human MOP membranes, 10 µM",− (“−” indicates less than 50% inhibition at 10 μM)
same,A8: inhibition of radioligand binding,Human neurokinin (NK1); human NK1 membranes,+ (“+” indicates greater than 50% inhibition at 10 μM)
same,A9: inhibition of radioligand binding,[2]; human NPY-Y1 membranes,− (“−” indicates less than 50% inhibition at 10 μM)
same,A10: inhibition of radioligand binding,"Human opioid (ORL1); human ORL1 membranes, 10 µM",− (“−” indicates less than 50% inhibition at 10 μM)
same,A11: inhibition of radioligand binding,Mouse urotensin (mUR2); mouse mUR2 membranes,− (“−” indicates less than 50% inhibition at 10 μM)
